Starred links: 1 amine or outer side, 2 acyl side, 3 side chain; linkers in the order of their positions; H or OH if unused. Positions of bridges follow the written chain, without caps; N, C: chain ends. Non-standard residues stand in square brackets, D forms with d. Residues, ends and D or L forms follow the SMILES beside them. X24 = O=C(CCCCSc1c(F)c(F)c(SCCN[*:1])c(F)c1F)[*:2]; Trp(5-F) = N[C@@H](Cc1c[nH]c2ccc(F)cc12)C(=O)O; Pyridine(3,5-bisCH2) = c1ncc(C[*:2])cc1C[*:1]; X30 = COc1ccc(C[C@H](N[*:1])C(=O)[*:2])cc1Cl; X16 = O=C([C@H](CCCCCC=[*:3])N[*:1])[*:2]; Pro(cis-4-F) = O=C(O)[C@@H]1C[C@H](F)CN1; X19 = O=C(CCCCc1ccc(CCCCN[*:1])cc1)[*:2]; X4 = O=C(CCSCc1cccc(CSCCN[*:1])c1)[*:2]; Hag = O=C([C@H](CCC=[*:3])N[*:1])[*:2]; X27 = O=C([C@@H](N[*:1])C1(O)CC1)[*:2]; TBMB = c1c(C[*:1])cc(C[*:3])cc1C[*:2]; X23 = CC[C@@]1(C(=O)[*:2])CCCN1[*:1]; dGly(cPent) = N[C@@H](C(=O)O)C1CCCC1; mXylylene = c1cc(C[*:1])cc(C[*:2])c1; AEF = NCCOc1ccc(C[C@H](N)C(=O)O)cc1; Glutaryl = O=C(CCCC(=O)[*:2])[*:1]; Val(3-OH) = CC(C)(O)[C@H](N)C(=O)O; X8 = Clc1cc(C[*:1])cc(C[*:2])c1; aThr = C[C@H](O)[C@H](N)C(=O)O; αMeP = C[C@@]1(C(=O)O)CCCN1; Mpa = O=C(O)CCS
Tests used:
[1] = biological target: PCSK9 (Homo sapiens (Human), UniProt Q8NBP7); experiment: PCSK9 Alexa FRET Standard assay (displacement of AlexaFluor647 tagged cyclic peptide Reagent A); type: binding; settings: PCSK9 Alexa FRET Standard assay, 0.5 nM PCSK9, 20 nM AF cyclic peptide Reagent A; read-out: IC50
How it was run: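 TR-FRET displacement: 0.5 nM biotinylated PCSK9 with 1.25 nM Strep-Eu and 20 nM AlexaFluor-tagged cyclic peptide (final) in 50 mM HEPES pH 7.4, 0.15 M NaCl, 5 mM CaCl2, 0.01% BSA, 0.01% P20, ≥2 h at room temperature. IC50 from sigmoidal fit, converted to Ki via peptide KD; falling Eu counts flagged false positives.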

[2] = biological target: human PCSK9 / human LDLR EGFa domain interaction (Homo sapiens (Human), UniProt Q8NBP7); experiment: TR-FRET assay of inhibition of the PCSK9-LDLR protein-protein interaction; type: binding; settings: TR-FRET, 20 nM human PCSK9, 20 nM human LDLR EGFa domain, 2 hours room temperature; read-out: IC50
How it was run: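 Half-maximal inhibitory concentrations came from 4-parameter fits of dose-response data. Proteins: biotinylated PCSK9, His-tagged LDLR EGFa, 20 nM each; labels 5 nM; 2 h, room temperature; buffer 50 mM HEPES, 150 mM NaCl, 5 mM CaCl2.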

Chain of human PCSK9 / human LDLR EGFa domain interaction (Q8NBP7 153-692): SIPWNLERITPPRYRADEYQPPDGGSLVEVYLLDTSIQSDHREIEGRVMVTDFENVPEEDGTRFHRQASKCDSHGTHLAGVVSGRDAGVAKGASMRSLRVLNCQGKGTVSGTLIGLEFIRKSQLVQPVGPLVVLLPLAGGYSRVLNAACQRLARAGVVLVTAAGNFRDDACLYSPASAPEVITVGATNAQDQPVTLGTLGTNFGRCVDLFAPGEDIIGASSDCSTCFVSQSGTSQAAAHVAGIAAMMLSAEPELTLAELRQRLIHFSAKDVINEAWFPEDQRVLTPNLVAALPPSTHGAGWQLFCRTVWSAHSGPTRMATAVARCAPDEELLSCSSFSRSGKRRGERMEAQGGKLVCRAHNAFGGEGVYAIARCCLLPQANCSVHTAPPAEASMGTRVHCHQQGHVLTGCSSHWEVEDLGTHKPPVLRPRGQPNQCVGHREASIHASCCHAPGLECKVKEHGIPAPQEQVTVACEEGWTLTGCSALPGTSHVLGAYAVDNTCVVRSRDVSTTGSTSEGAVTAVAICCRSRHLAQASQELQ
Chain of human PCSK9 / human LDLR EGFa domain interaction (Q8NBP7 31-152 partner): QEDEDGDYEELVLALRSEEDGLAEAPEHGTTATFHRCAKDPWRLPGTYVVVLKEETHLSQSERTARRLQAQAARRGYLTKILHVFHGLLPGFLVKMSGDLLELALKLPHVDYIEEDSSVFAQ
Chain of PCSK9 (Q8NBP7 153-692): as the sequence (Q8NBP7 153-692) above

Compound | IC50 [1] | IC50 [2]
CC(=O)N[C@H]1Cc2cn(nn2)-c2ccc(cc2)C[C@@H](C(N)=O)NC(=O)[C@]2(C)CCCN2C(=O)[C@H](Cc2ccc(O)cc2)NC(=O)[C@H](Cc2cnc[nH]2)NC(=O)[C@H](CC(=O)O)NC(=O)[C@H](Cc2c[nH]c3ccc(F)cc23)NC(=O)[C@H](Cc2c[nH]c3ccc(F)cc23)NC(=O)CNC(=O)[C@H](C)NC1=O [Compound 334] | 21000 to 50000 nM | 21000 to 50000 nM
COc1ccc(C[C@@H]2NC(=O)[C@H]([C@@H](C)O)NC(=O)[C@@H]3CCCCC/C=C/CC[C@H](NC(=O)[C@@H](C)NC(=O)[C@H](C)NC(=O)CCSCc4cccc(c4)CSCCNC(=O)[C@]4(C)CCCN4C2=O)C(=O)N[C@@H](Cc2c[nH]c4ccc(F)cc24)C(=O)N3)cc1 [Compound 496] (cyclo(A[dA][Hag][Trp(5-F)][X16]TY(Me)[αMeP][X4]); staple (E) 3-5) | 100 to 1000 nM | 100 to 1000 nM
COc1ccc(C[C@@H]2NC(=O)[C@H](Cc3cnc[nH]3)NC(=O)[C@H](CC(=O)O)NC(=O)[C@H](Cc3c[nH]c4ccc(F)cc34)NC(=O)[C@H](Cc3c[nH]c4ccc(F)cc34)NC(=O)[C@@H](C)NC(=O)CCCC(=O)NCCOc3ccc(cc3)C[C@@H](C(N)=O)NC(=O)[C@]3(C)CCCN3C2=O)cc1 [Compound 400] ([dA][Trp(5-F)][Trp(5-F)]DHY(Me)[αMeP][AEF]-NH2; linker N-8 via Glutaryl) | 1000 to 12100 nM | 100 to 1000 nM
C[C@@H]1NC(=O)CCCCc2ccc(cc2)CCCCNC(=O)C[C@@H](C(=O)N[C@@H](Cc2cnc[nH]2)C(=O)N[C@@H](Cc2ccc(O)cc2)C(=O)N2CCC[C@H]2C(N)=O)NC(=O)[C@H](Cc2c[nH]c3ccc(F)cc23)NC(=O)[C@H](Cc2c[nH]c3ccc(F)cc23)NC(=O)CNC1=O [Compound 330] ([X19]AG[Trp(5-F)][Trp(5-F)]DHYP-NH2; lactam N-6) | 1000 to 12100 nM | 100 to 1000 nM
COc1ccc(C[C@@H]2NC(=O)[C@H](Cc3cnc[nH]3)NC(=O)[C@H](CC(=O)O)NC(=O)[C@H](Cc3c[nH]c4ccc(F)cc34)NC(=O)[C@H](Cc3c[nH]c4ccc(F)cc34)NC(=O)[C@@H](C)NC(=O)CCCCSc3c(F)c(F)c(c(F)c3F)SCCNC(=O)[C@]3(C)CCCN3C2=O)cc1 [Compound 483] (cyclo(DHY(Me)[αMeP][X24][dA][Trp(5-F)][Trp(5-F)])) | 0.11 to 100 nM | 0.1 to 100 nM
Cc1cc2cc(c1)CSC[C@@H](C(N)=O)NC(=O)[C@]1(C)CCCN1C(=O)[C@H](Cc1ccc(O)cc1)NC(=O)[C@H](Cc1c[nH]cn1)NC(=O)[C@H](CC(=O)O)NC(=O)[C@H](Cc1c[nH]c3ccc(F)cc13)NC(=O)[C@H](Cc1c[nH]c3ccc(F)cc13)NC(=O)CNC(=O)[C@H](CCCCN)NC(=O)CCSC2 [Compound 357] ([Mpa]KG[Trp(5-F)][Trp(5-F)]DHY[αMeP]C-NH2; linker 1-10 via TBMB) | 1000 to 12100 nM | 1000 to 12100 nM
COc1ccc(C[C@@H]2NC(=O)[C@H](Cc3c[nH]cn3)NC(=O)[C@H](CC(=O)O)NC(=O)[C@H](Cc3c[nH]c4ccc(F)cc34)NC(=O)[C@H](Cc3c[nH]c4ccc(F)cc34)NC(=O)[C@@H](C3CCCC3)NC(=O)[C@H](CCCCN)NC(=O)CCSCc3cccc(c3)CSCCNC(=O)[C@]3(C)CCCN3C2=O)cc1 [Compound 344] (cyclo(DHY(Me)[αMeP][X4]K[dGly(cPent)][Trp(5-F)][Trp(5-F)])) | 21000 to 50000 nM | 21000 to 50000 nM
NCCCC[C@@H]1NC(=O)CCSCc2cccc(c2)CSC[C@@H](C(N)=O)NC(=O)[C@@H]2CCCN2C(=O)[C@H](Cc2ccc(OCCN)cc2)NC(=O)[C@H](Cc2c[nH]cn2)NC(=O)[C@H](CC(=O)O)NC(=O)[C@H](Cc2c[nH]c3ccc(F)cc23)NC(=O)[C@H](Cc2c[nH]c3ccc(F)cc23)NC(=O)CNC1=O [Compound 265] ([Mpa]KG[Trp(5-F)][Trp(5-F)]DH[AEF]PC-NH2; linker 1-10 via mXylylene) | 100 to 1000 nM | 100 to 1000 nM
CC[C@@]12CCCN1C(=O)[C@H](Cc1ccc(O)cc1)NC(=O)[C@H](Cc1cnc[nH]1)NC(=O)[C@H](CC(=O)O)NC(=O)[C@H](Cc1c[nH]c3ccc(F)cc13)NC(=O)[C@H](Cc1c[nH]c3ccc(F)cc13)NC(=O)CNC(=O)[C@H](CCCCN)NC(=O)CCSCc1cccc(c1)CSC[C@@H](C(N)=O)NC2=O [Compound 378] ([Mpa]KG[Trp(5-F)][Trp(5-F)]DHY[X23]C-NH2; linker 1-10 via mXylylene) | 0.11 to 100 nM | 0.1 to 100 nM
COc1ccc(C[C@@H]2NC(=O)[C@H]([C@@H](C)O)NC(=O)[C@@H]3C[C@H](F)CN3C(=O)[C@H](Cc3c[nH]c4ccc(F)cc34)NC(=O)[C@H](Cc3c[nH]c4ccc(F)cc34)NC(=O)[C@@H](C)NC(=O)[C@H](CCCCN)NC(=O)[C@@H](NC(C)=O)CC(=O)NCCOc3ccc(cc3)C[C@@H](C(N)=O)NC(=O)[C@]3(C)CCCN3C2=O)cc1 [Compound 067] (Ac-DK[dA][Trp(5-F)][Trp(5-F)][Pro(cis-4-F)]TY(Me)[αMeP][AEF]-NH2; lactam 1-10) | 100 to 1000 nM | 0.1 to 100 nM
C[C@@]12CCCN1C(=O)[C@H](Cc1ccc(O)cc1)NC(=O)[C@H](Cc1cnc[nH]1)NC(=O)[C@H](CC(=O)O)NC(=O)[C@H](Cc1c[nH]c3ccc(F)cc13)NC(=O)[C@H](Cc1c[nH]c3ccc(F)cc13)NC(=O)CNC(=O)[C@H](C1(O)CC1)NC(=O)CCSCc1cccc(c1)CSC[C@@H](C(N)=O)NC2=O [Compound 372] ([Mpa][X27]G[Trp(5-F)][Trp(5-F)]DHY[αMeP]C-NH2; linker 1-10 via mXylylene) | 100 to 1000 nM | 100 to 1000 nM
COc1ccc(C[C@@H]2NC(=O)[C@H]([C@@H](C)O)NC(=O)[C@@H]3C[C@H](F)CN3C(=O)[C@H](Cc3c[nH]c4ccc(F)cc34)NC(=O)[C@H](Cc3c[nH]c4ccc(F)cc34)NC(=O)[C@@H](C)NC(=O)[C@H](CCCCN)NC(=O)CCC/C=C\Cc3ccc(cc3)C[C@@H](C(N)=O)NC(=O)[C@]3(C)CCCN3C2=O)cc1 [Compound 132] | 21000 to 50000 nM | 21000 to 50000 nM
COc1ccc(C[C@@H]2NC(=O)[C@H](Cc3cnc[nH]3)NC(=O)[C@H](CC(=O)O)NC(=O)[C@H](Cc3c[nH]c4ccc(F)cc34)NC(=O)[C@H](Cc3c[nH]c4ccc(F)cc34)NC(=O)[C@@H](C)NC(=O)[C@H](NC(C)=O)Cc3cn(nn3)-c3ccc(cc3)C[C@@H](C(N)=O)NC(=O)[C@]3(C)CCCN3C2=O)cc1 [Compound 381] | 1000 to 12100 nM | 100 to 1000 nM
COc1ccc(C[C@@H]2NC(=O)[C@H]([C@@H](C)O)NC(=O)[C@@H]3CCCN3C(=O)[C@H](Cc3c[nH]c4ccc(F)cc34)NC(=O)[C@H](Cc3c[nH]c4ccc(F)cc34)NC(=O)[C@@H](C)NC(=O)[C@H](CCCCN)NC(=O)CCSCc3cncc(c3)CSC[C@@H](C(N)=O)NC(=O)[C@]3(C)CCCN3C2=O)cc1 [Compound 058] ([Mpa]K[dA][Trp(5-F)][Trp(5-F)]PTY(Me)[αMeP]C-NH2; linker 1-10 via Pyridine(3,5-bisCH2)) | 0.11 to 100 nM | 0.1 to 100 nM
COc1ccc(C[C@@H]2NC(=O)[C@H]([C@@H](C)O)NC(=O)[C@@H]3CCCN3C(=O)[C@H](Cc3c[nH]c4ccc(F)cc34)NC(=O)[C@H](Cc3c[nH]c4ccc(F)cc34)NC(=O)[C@@H](C)NC(=O)[C@H](CCCCN)NC(=O)CCSCc3cc(Cl)cc(c3)CSC[C@@H](C(N)=O)NC(=O)[C@]3(C)CCCN3C2=O)cc1 [Compound 064] ([Mpa]K[dA][Trp(5-F)][Trp(5-F)]PTY(Me)[αMeP]C-NH2; linker 1-10 via X8) | 1000 to 12100 nM | 1000 to 12100 nM
COc1ccc(C[C@@H]2NC(=O)[C@H](Cc3c[nH]cn3)NC(=O)[C@H](CC(=O)O)NC(=O)[C@H](Cc3c[nH]c4ccc(F)cc34)NC(=O)[C@H](Cc3c[nH]c4ccc(F)cc34)NC(=O)[C@@H](C)NC(=O)[C@H](CCCCN)NC(=O)CCSCc3cccc(c3)CSCCNC(=O)[C@]3(C)CCCN3C2=O)cc1Cl [Compound 386] (cyclo(DH[X30][αMeP][X4]K[dA][Trp(5-F)][Trp(5-F)])) | 100 to 1000 nM | 0.1 to 100 nM
COc1ccc(C[C@@H]2NC(=O)[C@H]([C@H](C)OC)NC(=O)[C@@H]3C[C@H](F)CN3C(=O)[C@H](Cc3c[nH]c4ccc(F)cc34)NC(=O)[C@H](Cc3c[nH]c4ccc(F)cc34)NC(=O)[C@@H](C)NC(=O)[C@H](CCCCN)NC(=O)CCSCc3cccc(c3)CSC[C@@H](C(N)=O)NC(=O)[C@]3(C)CCCN3C2=O)cc1 [Compound 072] ([Mpa]K[dA][Trp(5-F)][Trp(5-F)][Pro(cis-4-F)][aThr](Me)Y(Me)[αMeP]C-NH2; linker 1-10 via mXylylene) | 1000 to 12100 nM | 100 to 1000 nM
CC(C)(O)[C@@H]1NC(=O)[C@@H]2CCCN2C(=O)[C@H](Cc2c[nH]c3ccc(F)cc23)NC(=O)[C@H](Cc2c[nH]c3ccc(F)cc23)NC(=O)CNC(=O)[C@H](CCCCN)NC(=O)CCSCc2cccc(c2)CSC[C@@H](C(N)=O)NC(=O)[C@]2(C)CCCN2C(=O)[C@H](Cc2ccc(O)cc2)NC1=O [Compound 048] ([Mpa]KG[Trp(5-F)][Trp(5-F)]P[Val(3-OH)]Y[αMeP]C-NH2; linker 1-10 via mXylylene) | 100 to 1000 nM | 100 to 1000 nM
COc1ccc(C[C@@H]2NC(=O)[C@H]([C@@H](C)O)NC(=O)[C@@H]3CCCN3C(=O)[C@H](Cc3c[nH]c4ccc(F)cc34)NC(=O)[C@H](Cc3c[nH]c4ccc(F)cc34)NC(=O)[C@@H](C)NC(=O)[C@H](CCCCN)NC(=O)CCSCc3cccc(c3)CSC[C@@H](C(N)=O)NC(=O)[C@]3(C)CCCN3C2=O)cc1 [Compound 054] ([Mpa]K[dA][Trp(5-F)][Trp(5-F)]PTY(Me)[αMeP]C-NH2; linker 1-10 via mXylylene) | 100 to 1000 nM | 0.1 to 100 nM
